Tested on: T1, estrogen receptors (ERs; subtype not resolved)
T1 construct: endogenous receptors in whole endometriotic stromal cells (ESCs)
Assay: whole-cell competitive radioligand binding against [3H]-E2
Assay type: cell-based, Homo sapiens
Method: whole-cell competitive radioligand binding against [3H]-E2 on estrogen receptors (ERs; subtype not resolved) | puerarin also competed against the specific binding of [^3H]-E2 to ERs, and the IC50 of puerarin was determined

O=c1c(-c2ccc(O)cc2)coc2c([C@@H]3O[C@H](CO)[C@@H](O)[C@H](O)[C@H]3O)c(O)ccc12 [puerarin]
IC50: 870 nM

From article PMC3446905, “Puerarin Suppresses Proliferation of Endometriotic Stromal Cells Partly via the MAPK Signaling Pathway Induced by 17ß-estradiol-BSA” (PLoS ONE, 2012)
